Tests used:
[1] = system: hippocampal microglial reaction; assay: Microglial reaction (IB4 histochemistry) after stereotaxic intrahippocampal microinjection, AMPA excitotoxicity model; assay type: in vivo, rat; conditions: for density of reactive microcytes (IB4-stained) / hippocampal microgliosis area: rat dorsal hippocampus, 24 hours after lesion, mean ± SEM, n=4; for hippocampal microgliosis area: two 0.5 μl injections 2 h apart (5.4 mM AMPA and/or 20 μM glibenclamide)
Experimental: (§1) In this neurodegenerative model, rats were anaesthetized with equithesin (a mixture of chloral hydrate and sodium pentobarbitone; 0.3 ml/100 g body wt, i.p.), and placed on a Kopf stereotaxic frame with the incisor bar set at −3.3 mm. Intracerebral injections aimed at the dorsal hippocampus were performed at 3.3 mm caudal to bregma, 2.2 mm lateral, and 2.9 mm ventral from dura (cf. G. Paxinos et al., “The rat brain in stereotaxic coordinates”, Sydney: Academic Press 1986). A volume of 0.5 μl was injected over a period of 5 min.
(§2) Four different groups of rats received two injections in a 2-hour interval as follows: a) sham rats (n=4) received two injections of PBS; b) AMPA rats (n=4) received the first injection of 5.4 mM AMPA and the second of PBS; c) glibenclamide rats (n=4) received two injections of 20 μM glibenclamide; d) AMPA+glibenclamide rats (n=4) received 5.4 mM AMPA+20 μM glibenclamide in the first injection and 20 μM glibenclamide in the second injection. All rats were sacrified 24 hours after the lesion.
(§3) Rats were transcardially perfused with 300 ml of 0.1 M phosphate buffer (PB, pH 7.4) followed by 300 ml ice-cold fixative (flow rate 20 ml/min). The fixative consisted of 4% (w/v) paraformaldehyde in PB. Brains were removed, crioprotected with 15% (w/v) sucrose in PB and then, frozen with dry ice.
Cryostat sections (12 μm) were obtained at the level of dorsal hippocampus (−3.3 mm to bregma). Isolectine B4 (IB4) histochemistry was performed to identify the microglial reaction (cf. C. A. Colton et al., J. Histochem. Cytochem. 1992, vol. 40, pp. 505-12). The hippocampal morphology was studied in Cresyl violet stained sections. The area of lesion and the microgliosis evaluation were performed on cresyl violet and IB4-positive stained sections respectively. These parameters were analyzed using a computer-assisted image analysis system (OPTIMAS®, BioScan Inc., Washington, USA). IB4-stained reactive microcytes were counted at ×100 magnification using an ocular grid mounted on a transmission light microscope (Axiolab, Zeiss, Göttingen, Germany). One-way ANOVA was used to compare differences between groups, followed by the LSD post-hoc test. Results are expressed as mean ± SEM.

[2] = system: AMPA induced rat hippocampal excitotoxic damage; assay: Hippocampal CA1 lesion area (cresyl violet) after stereotaxic intrahippocampal microinjection, AMPA excitotoxicity model; assay type: in vivo; conditions: for area of hippocampal CA1 pyramidal layer lesion: rat dorsal hippocampus, two injections 2 h apart (5.4 mM AMPA and/or 20 μM glibenclamide), 24 hours after lesion, mean ± SEM
Experimental: as §1, §2, §3
Cryostat sections (12 μm) were obtained at the level of dorsal hippocampus (−3.3 mm to bregma). Isolectine B4 (IB4) histochemistry was performed to identify the microglial reaction (cf. C. A. Colton et al., J. Histochem. Cytochem. 1992, vol. 40, pp. 505-12). The hippocampal morphology was studied in Cresyl violet stained sections. […] These parameters were analyzed using a computer-assisted image analysis system (OPTIMAS®, BioScan Inc., Washington, USA). IB4-stained reactive microcytes were counted at ×100 magnification using an ocular grid mounted on a transmission light microscope (Axiolab, Zeiss, Göttingen, Germany). […] Results are expressed as mean ± SEM.

[3] = rat AMPA hippocampal excitotoxicity model, 20 μM glibenclamide

| Structure (SMILES) | density of reactive microcytes (IB4-stained) [1] [cells/mm^2] | hippocampal microgliosis area [1] [mm^2] | area of hippocampal CA1 pyramidal layer lesion [2] [mm^2] | effect on microglial activation (in words) [1, 3] | effect on hippocampal lesion (in words) [2, 3] |
| --- | --- | --- | --- | --- | --- |
| Cc1onc(O)c1CC(N)C(=O)O (stereo not drawn) [AMPA, α-amino-3-hydroxy-5-methylisoxazole-4-propionic] | 645±59 | 0.44±0.07 | 0.130±0.015 |  |  |
| COc1ccc(Cl)cc1C(=O)NCCc1ccc(S(=O)(=O)NC(=O)NC2CCCCC2)cc1 [glibenclamide] | 614±91 | 0.16±0.03 | 0.012±0.0017 | potentiates microglial activation | avoids hippocampal excitotoxic damage |
